Measurements: US20110190142A1, “DETERMINATION OF RENIN-PRORENIN RECEPTOR ACTIVITY” (Charite- Universitatsmedizin Berlin, priority 2006, published 2011)

Key:
Type in all cases: cell-based, human
[1] = tested on: renin/prorenin receptor (RER); test: Renin- and prorenin-mediated RER activation (RER-PLZF pathway) in HEK293 cells with aliskiren or siRNA
Experimental: (§1) For all cell culture studies immortalized human epithelial kidney cells (HEK293 cells) were used. […] Additional inhibition with 1 μM aliskiren was performed as indicated. 1 hour after pre-treatment with losartan±aliskiren cells were stimulated with either 5 nM renin, 5 nM prorenin, or the respective vehicle. Cells were harvested for mRNA expression analysis or determination of viable cell number and apoptosis after 3 or 24 hours, respectively. These experimental procedures have been described in detail previously (Schefe et al., 2006). All experiments were performed in independent triplicates.

[2] = tested on: renin/prorenin receptor (RER); test: PI3K-p85α promoter luciferase reporter assay under renin stimulation; details: PLZF-overexpressing HEK293 cells
Experimental: The indicated cell types were seeded on day 1 in 12-well plates. 100 ng of indicated pGL3-basic constructs (encoding firefly luciferase) and 20 ng of phRL-null plasmid (encoding humanized Renilla luciferase for standardization of promoter activity; Promega) per well were transfected on day 2 at 60-80% confluency using GeneJuice (Merck Biosciences, Bad Soden, Germany) according to the manufacturer's protocol. Cells were harvested 48 hours after transfection using Passive Lysis Buffer (Promega). Reporter activities were measured in a Pharmingen Monolight 3010 luminometer (BD Biosciences, Erembodegem, Belgium) using the Dual-Luciferase Reporter Assay System (Promega). Promoter activity is expressed as relative luciferase activity (RLA) (Funke-Kaiser et al., 2003a). RLA data represent the mean±standard deviation of at least three single, parallel transfection experiments.
(§2) HEK293 cells were seeded in 24-well plates and transfected with either 100 ng of pCEP4-PLZF-myc expression vector, 50 ng of indicated pGL3-basic construct and 10 ng of phRL-null plasmid (for luciferase assay), or 100 ng of pCEP4-PLZF-myc alone (for PCR experiments) per well as described above. siRNA transfection, renin stimulation and determination of reporter activity were performed as described above, except for an exceeded renin stimulation period of 3 hours.

[3] = tested on: RER protein; test: Down-regulation of RER protein by siRNA (Western blot, densitometry); details: Western blot of total cell lysate
Experimental: For analysis of subcellular localization of RER, 9 μg (membrane) and 12 μg (cytosolic) protein were loaded per lane, separated in a 10% SDS-PAGE and transferred to a nitrocellulose membrane. Western blot analysis was performed with an antibody against human RER (corresponding ATP6AP2; goat polyclonal, ab5959, Abcam, Cambridge, UK) at a dilution of 0.5 μg/ml. Horseradish peroxidase-conjugated anti-goat antibody (rabbit polyclonal; 1:2,500; DAKO, Hamburg, Germany) was used as secondary antibody.
For PLZF translocation experiments HEK293 cells were seeded on day 1 in 6-well plates. 250 ng of pCEP4-PLZF-myc expression vector per well were transfected on day 2 at 40-60% confluency using GeneJuice (Merck Biosciences, Bad Soden, Germany) according to the manufacturer's protocol. On day 3 the cells were transfected with 50 nM siRNA against the RER [5′-GCUCCGUAAUCGCCUGUUU (sense strand), (SEQ ID No. 38); 5′-AAACAGGCGAUUACGGAGC (antisense strand), (SEQ ID No. 39)] or GFP control siRNA (Eurogentec, Seraing, Belgium) using jetSI-ENDO (Eurogentec) following the standard procedure. […] Chemoluminescence was detected with ECL (Amersham, München, Germany), and subsequent exposition to Hyperfilm (Amersham).

[4] = tested on: RER mRNA; test: Down-regulation of RER mRNA by siRNA (real-time PCR); details: HEK293 cells
Experimental: For PLZF translocation experiments HEK293 cells were seeded on day 1 in 6-well plates. 250 ng of pCEP4-PLZF-myc expression vector per well were transfected on day 2 at 40-60% confluency using GeneJuice (Merck Biosciences, Bad Soden, Germany) according to the manufacturer's protocol. On day 3 the cells were transfected with 50 nM siRNA against the RER [5′-GCUCCGUAAUCGCCUGUUU (sense strand), (SEQ ID No. 38); 5′-AAACAGGCGAUUACGGAGC (antisense strand), (SEQ ID No. 39)] or GFP control siRNA (Eurogentec, Seraing, Belgium) using jetSI-ENDO (Eurogentec) following the standard procedure. On day 5, after 24 hours of starving in serum-free medium, cells were stimulated with 10 nM human recombinant renin (mammalian expression; kind gift from Dominik N. Müller, MDC Berlin) or vehicle (0.1% DMSO in PBS) for 2 hours. Western blot was performed with anti-c-myc antibody (mouse monoclonal, 9B11; 1:2,000; Cell Signalling) and horseradish peroxidase-conjugated anti-mouse antibody (rabbit polyclonal; 1:2,500; DAKO). Chemoluminescence was detected with ECL (Amersham, München, Germany), and subsequent exposition to Hyperfilm (Amersham). […]

[5] = tested on: renin/prorenin receptor (RER); test: PI3K-p85α mRNA by quantitative real-time PCR after renin/prorenin stimulation of HEK293 cells; details: HEK293 cells, regardless of PLZF expression level
Experimental: as §2
RNA isolation and cDNA synthesis were performed as described above. qPCR was performed applying a SYBR Green I reaction mix and run on a Stratagene Mx3000P (Stratagene, La Jolla, Calif., USA) using the following primers: […]
Data represents the mean expression level±standard deviation (standardized to 18S rRNA expression) calculated according to the ddCT method of at least three independent measurements. Equality of PCR efficiencies has been verified applying the program LinRegPCR (Ramakers et al. 2003) and ANOVA testing.
as §1

Compound	influence on the effects of renin and prorenin (RER and PI3K-p85α transcription, proliferation, apoptosis) ([1]; pre-treatment with 1 μM aliskiren)	influence on renin-induced increase in PI3K-p85α promoter activity [2]	RER protein reduced to (densitometric measurement, compared to control) [3]	influence on transcriptional and cellular effects of prorenin stimulation ([1]; siRNA 24 hours before prorenin)	RER mRNA repressed to ([4]; 50 nM siRNA) [%]	average reduction of RER mRNA ([4]; siRNA transfected 24 hours before stimulation) [%]	influence on renin induction of PI3K-p85α mRNA [5]
COCCCOc1cc(C[C@@H](C[C@H](N)[C@@H](O)C[C@H](C(=O)NCC(C)(C)C(N)=O)C(C)C)C(C)C)ccc1OC [aliskiren]	not affected	–	–	–	–	–	–
siRNA against the RER: siRNA 5′-GCUCCGUAAUCGCCUGUUU (sense), 5′-AAACAGGCGAUUACGGAGC (antisense), SEQ ID No. 38/39 (listed as RNA, chemistry not given here; listed as Homo sapiens)	–	abolished	less than 10%	completely abolished	29.8±5.2	81.1±4.5	abolished this induction
